# In publication PMC8598068, “Flagellin lysine methyltransferase FliB catalyzes a [4Fe-4S] mediated methyl transfer reaction” (PLoS Pathogens, 2021):
# How the values were obtained:
# ftFliB (FleBt-FliB) [1] = biological target: T1, ftFliB (FleBt-FliB) (Salmonella enterica, UniProt Q56106); test: biochemical
# ftFliB (FleBt-FliB) [2] = biological target: T1, ftFliB (FleBt-FliB); test: UV-vis, EPR, […] Mössbauer, iron and sulfur content; assay type: binding; design: N-terminal His6 and Yersinia enterocolitica FleB residues 54-332 (FleBt) solubility tag kept, fused to FliB; E. coli BL21(DE3); ~76 kDa; about 14-mer; settings: anaerobically reconstituted protein; CX4CX3CC motif
# [3] = biological target: the molecule itself; test: SEC-MALS; TSK-GEL BioAssist G4SWXL column, buffer A, 0.5 mL/min; MALS with RI and UV 280 nm detectors
molecule,measurement,setting,value
"C[S+](CC[C@H](N)C(=O)O)C[C@H]1O[C@@H](n2cnc3c(N)ncnc32)[C@H](O)[C@@H]1O (stereo partly drawn) [SAM, S-adenosylmethionine]",Kd,ftFliB (FleBt-FliB) [1],10.5 ± 3.41 µM
[S]12[Fe]3[S]4[Fe]1[S]1[Fe]2[S]3[Fe]41 [[4Fe-4S] cluster],"UV-vis, EPR, 57Fe Mössbauer, iron and sulfur content",ftFliB (FleBt-FliB) [2],indicating the presence of one [4Fe-4S] cluster in FliB
"FleBt-FliB fusion protein (flagellin lysine methyltransferase FliB fused to the C-terminus of truncated FleB) (enzyme, also called ftFliB; source: E. coli BL21 (DE3), purified (HisTrap HP, SEC); copies: 14) MKEITVTEPAFVTRFSCSGSACRDHCCKGWKITLDKTTVKKYLASKDTTIRTIAQDHIILLKKNNSHWGEIKLPSALGNCPYLDEDRLCRVQKTLGAKALSHTCSSFPRAHHTYKNEVRNSLSLACPEVTSRILNDPDAMALSEKTIIQQTFNTAPLFPAQQKLLNLFCLSLINHANSSTEAALYALIKFVMYAQKFAKIDDAALGELEQVYAALLEQLQTGVLAQELMNIAPDSKVKTSLVLQMQDYFRSLPLNRGSVILDHYIQCLLRVLTAEEGVSMEQKVSDIESSLARCLQANEQQKNWAFRNLILYKIWENNFPNQPNVDPLRALYIIVAEYAFIKLLTAASVHERGRIEWDDVTNIVYSFHSRSQHNSEVAKNFHRHIETVRTGDDLSMIHLLT",stoichiometry N,[3],~14 subunits per oligomer
